Experimental data as given in patent publication EP2562249A1, “Engineered host cells and methods for the production of cis, cis-muconic acid” (Helmholtz-Zentrum für Infektionsforschung GmbH, priority 2011, dated 2013).

What was measured:
[1] = tested on: P. putida KT2440; assay: Growth in the presence of the benzoate substrate analogues 3-FB or 3-CIB; type: cell-based; details: MM with 10 mM succinate and 1 mM benzoate, increasing concentrations; 3-FB as compared to 3-CIB
Experimental: To determine the optimal concentrations of the substrate analogues, P. putida KT2440 was grown in MM with 10 mM succinate and 1 mM benzoate in the presence of increasing concentrations of 3-FB or 3-CIB. The accumulation of fluorocatechol derivatives is known to result in a violet coloration of the medium. When P. putida KT2440 was exposed to 3-FB or 3-CIB a violet coloration of the medium was observed. […] Therefore, two independent batch cultures of NTG-treated P. putida KT2440 cells were cultivated in the presence of 20 mM 3-FB. Batch culture 1 was grown for 14 hours and batch culture 2 for 24 hours, after which the cultures were plated. Individual colonies were screened for their ability to grow with benzoate as the sole source of carbon and energy. Three mutants that could no longer grow using benzoate were isolated from batch 1 and 84 mutants were isolated from batch 2, which represented 0.1 % and 4.4 %, respectively, of the total amount of colonies that were screened. No mutants were found when the NTG-treated P. putida KT2440 cells were not exposed to 3-FB. All mutants accumulated cis, cis-muconate in the medium when grown with succinate in the presence of benzoate. Therefore, the disability of the further conversion of 2-fluoro-cis, cis-muconate by the muconate lactonizing enzyme seems to have caused the selective advantage. […]

[2] = molecular target: T1, catA2 (catechol 1,2-dioxygenase) (Pseudomonas putida, UniProt Q88I35); assay: catA2 activity assay: increase in cis, cis-muconate from catechol measured at A256 with purified His-tagged enzyme; type: biochemical, P. putida KT2440
T1 sequence (Q88I35 1-304): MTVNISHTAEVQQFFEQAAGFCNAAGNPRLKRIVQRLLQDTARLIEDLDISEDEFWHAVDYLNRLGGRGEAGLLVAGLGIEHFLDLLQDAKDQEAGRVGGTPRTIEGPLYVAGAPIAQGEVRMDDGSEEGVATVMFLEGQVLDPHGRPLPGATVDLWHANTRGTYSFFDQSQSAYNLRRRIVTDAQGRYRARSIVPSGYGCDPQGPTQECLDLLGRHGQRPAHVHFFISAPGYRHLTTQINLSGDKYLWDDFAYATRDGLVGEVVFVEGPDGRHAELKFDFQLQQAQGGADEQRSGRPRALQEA
Text: (§1) Gene catA2 was amplified from the genome of P. putida KT2440 by PCR using the forward primer 5'- […]-'3 (SEQ ID No. 7) and the reverse primer 5'-[…]-'3 (SEQ ID No. 8) containing a NdeI and XhoI site, respectively. The PCR fragment was ligated into the pET-28a(+) expression vector (Novagen, USA). The catA2 insert was controlled by sequencing after amplification with the T7 and T7 term primer set (Eurofins MWG GmbH, Germany).
(§2) pET-28a(+) with and without the catA2 insert were electro transformed into E. coli BLN21 and plated on LB with kanamycin (50 µg/mL). Transformants containing the plasmid with and without catA2 were grown overnight in 25 mL LB with kanamycin (50 µg/mL) at 37 °C with shaking. […] The purification of CatA2 was monitored with SDS-PAGE and Westernblotting using His-Tag antibodies (Abcam, U. K.).
(§3) The activity of catA2 was assayed by measuring the increase in cis, cis-muconate concentration from catechol in a buffer containing 20 mM Tris-HCl, 0.125 M imidazole (pH 7.8) at A256 using an UV mc2® spectrophotometer (SAFAS, Monaco). In order to determine the km value of the enzyme, the conversion rate of catechol to cis, cis-muconate was measured at 10 different concentrations of catechol ranging between from 0.0001 to 0.05 mM. […] The values for Km, IC50, and Vmax were calculated by Graphpad Prism (Graphpad Software, Inc., USA).

[3] = substrate: Oc1ccccc1O; assay: as above; type: biochemical, P. putida KT2440; details: other: substrate catechol, 0.0001 to 0.05 mM, 20 mM Tris-HCl, 0.125 M imidazole, pH 7.8, 37.0 °C
Text: as §1, §2, §3

O=C(O)c1cccc(F)c1 [3-FB, 3-fluorobenzoate]
Growth of P. putida KT2440 [1]: more inhibited

O=C(O)/C=C\C=C/C(=O)O [cis, cis-muconate]
IC50 ([2]; at a concentration of 0.05 mM catechol, cis, cis-muconate 0 to 0.2 mM): 139 µM | Ki ([2]; calculated from Km and IC50 using the Cheng-Prusoff equation): 2.8 µM

B1: catA2 (catechol 1,2-dioxygenase) (Pseudomonas putida KT2440) (protein)
chain: MTVNISHTAEVQQFFEQAAGFCNAAGNPRLKRIVQRLLQDTARLIEDLDISEDEFWHAVDYLNRLGGRGEAGLLVAGLGIEHFLDLLQDAKDQEAGRVGGTPRTIEGPLYVAGAPIAQGEVRMDDGSEEGVATVMFLEGQVLDPHGRPLPGATVDLWHANTRGTYSFFDQSQSAYNLRRRIVTDAQGRYRARSIVPSGYGCDPQGPTQECLDLLGRHGQRPAHVHFFISAPGYRHLTTQINLSGDKYLWDDFAYATRDGLVGEVVFVEGPDGRHAELKFDFQLQQAQGGADEQRSGRPRALQEA
Km [3]: 1 µM
